ChEMBL document CHEMBL1126278, “New neplanocin analogues. 1. Synthesis of 6'-modified neplanocin A derivatives as broad-spectrum antiviral agents” (J Med Chem, 1992)
Converted amounts (≈) assume the structure as drawn.

Legend:
HEL [1] = test: Inhibitory effect on replication of DNA virus CMV (AD-169) on HEL cell line.; format: functional, cell-based; details: Homo sapiens
HEL [2] = test: Inhibitory effect on replication of DNA virus CMV (Davis) on HEL cell line.; format: functional, cell-based; details: Homo sapiens
HEL [3] = test: Inhibitory effect on replication of DNA virus TK-VZV (07-1) on HEL cell line.; format: functional, cell-based; details: Homo sapiens
HEL [4] = test: Inhibitory effect on replication of DNA virus TK-VZV (YSR) on HEL cell line.; format: functional, cell-based; details: Homo sapiens
HEL [5] = test: Inhibitory effect on replication of DNA virus VZV (Oka) on HEL cell line.; format: functional, cell-based; details: Homo sapiens
HEL [6] = test: Inhibitory effect on replication of DNA virus VZV (YS) on HEL cell line.; format: functional, cell-based; details: Homo sapiens
HeLa [7] = test: Inhibitory effect on replication of RNA virus coxsB-4 in HeLa cell line.; format: functional, cell-based; details: Homo sapiens
HeLa [8] = test: Inhibitory effect on replication of RNA virus RSV in HeLa cell line; format: functional, cell-based; details: Homo sapiens
HeLa [9] = test: Inhibitory effect on replication of RNA virus VSV in HeLa cell line.; format: functional, cell-based; details: Homo sapiens
HeLa [10] = test: Inhibitory effect on replication of RNA virus cell morphology in HeLa cell line.; format: functional, cell-based; details: Homo sapiens
MDCK [11] = test: Inhibitory effect on replication of RNA virus cell morphology in MDCK cell line.; format: functional, cell-based; details: Canis lupus familiaris
MT4 [12] = test: Inhibitory effect on replication of RNA virus HIV-1 in MT-4 cell line.; format: functional, cell-based; details: Homo sapiens
MT4 [13] = test: Inhibitory effect on replication of RNA virus HIV-2 in MT-4 cell line.; format: functional, cell-based; details: Homo sapiens
MT4 [14] = test: Inhibitory effect on replication of RNA virus cell growth in MT-4 cell line.; format: functional, cell-based; details: Homo sapiens
PRK [15] = test: Inhibitory effect on replication of DNA virus Cell morphology on PRK cell line; format: functional, cell-based; details: Oryctolagus cuniculus
PRK [16] = test: Inhibitory effect on replication of DNA virus VV on PRK cell line.; format: functional, cell-based; details: Oryctolagus cuniculus
[17] = Inhibitory effect on replication of DNA virus HSV-1 (KOS) in PRK cell line.; format: functional, cell-based; details: Oryctolagus cuniculus
[18] = (§1) Inhibitory effect on replication of DNA virus HSV-2 (G) in PRK cell line.; format: functional, cell-based; details: Oryctolagus cuniculus
PRK [19] = test: Inhibitory effect on replication of RNA virus VSV in PRK cell line.; format: functional, cell-based; details: Oryctolagus cuniculus
PRK [20] = test: Inhibitory effect on replication of RNA virus cell morphology in PRK cell line.; format: functional, cell-based; details: Oryctolagus cuniculus
Adenosylhomocysteinase = Adenosylhomocysteinase (Mus musculus, UniProt P50247); test: Inhibitory effect against L929 Cell S-adenosyl-L-homocysteine hydrolase
Vero [21] = test: Inhibitory effect on replication of RNA virus coxsB-4 in Vero cell line; format: functional, cell-based; details: Chlorocebus sabaeus
Vero [22] = test: Inhibitory effect on replication of RNA virus measles on Vero cell line.; format: functional, cell-based; details: Chlorocebus sabaeus
Vero [23] = test: Inhibitory effect on replication of RNA virus reo-1 in Vero cell line.; format: functional, cell-based; details: Chlorocebus sabaeus
Vero [24] = test: Inhibitory effect on replication of RNA virus JV in Vero cell line.; format: functional, cell-based; details: Chlorocebus sabaeus
Vero [25] = test: Inhibitory effect on replication of RNA virus SFV in Vero cell line; format: functional, cell-based; details: Chlorocebus sabaeus
Vero [26] = test: Inhibitory effect on replication of RNA virus SV in Vero cell line.; format: functional, cell-based; details: Chlorocebus sabaeus
Vero [27] = test: Inhibitory effect on replication of RNA virus TV in Vero cell line.; format: functional, cell-based; details: Chlorocebus sabaeus
Vero [28] = test: Inhibitory effect on replication of RNA virus RNA synthesis in Vero cell line.; format: functional, cell-based; details: Chlorocebus sabaeus
Vero [29] = test: Inhibitory effect on replication of RNA virus cell morphology in Vero cell line.; format: functional, cell-based; details: Chlorocebus sabaeus
Vero [30] = test: Inhibitory effect on replication of RNA virus protein synthesis in Vero cell line.; format: functional, cell-based; details: Chlorocebus sabaeus
Vero [31] = test: Inhibitory effect on replication of RNA virus PV-3 in Vero cell line.; format: functional, cell-based; details: Chlorocebus sabaeus
HeLa [32] = test: cells; details: Homo sapiens
MDCK [33] = test: cells; details: Canis lupus familiaris
MDCK [34] = test: cells; details: Canis lupus familiaris; remark: listed apart in the source
ESM [35] = test: Inhibitory effect on replication of DNA virus Cell morphology on ESM cell line; format: functional, cell-based
ESM [36] = test: Inhibitory effect on replication of DNA virus HSV-1 (KOS) in ESM cell line; format: functional, cell-based
ESM [37] = test: Inhibitory effect on replication of DNA virus HSV-2 (G) in ESM cell line; format: functional, cell-based
ESM [38] = test: Inhibitory effect on replication of DNA virus TK-HSV-1 (B2006) on ESM cell line.; format: functional, cell-based
ESM [39] = test: Inhibitory effect on replication of DNA virus TK-HSV-1 (VMW 1837) on ESM cell line.; format: functional, cell-based
ESM [40] = test: Inhibitory effect on replication of DNA virus VV on ESM cell line.; format: functional, cell-based
ESM [41] = test: Inhibitory effect on replication of RNA virus VSV in ESM cell line.; format: functional, cell-based
ESM [42] = test: Inhibitory effect on replication of RNA virus cell morphology in ESM cell line.; format: functional, cell-based
HEL [43] = test: Inhibitory effect on replication of DNA virus Cell growth on HEL cell line.; format: functional, cell-based; details: Homo sapiens
[44] = as §1; format: functional, cell-based, herpes simplex virus; details: Human alphaherpesvirus 1, PRK

Sequence of Adenosylhomocysteinase (P50247 whole entry): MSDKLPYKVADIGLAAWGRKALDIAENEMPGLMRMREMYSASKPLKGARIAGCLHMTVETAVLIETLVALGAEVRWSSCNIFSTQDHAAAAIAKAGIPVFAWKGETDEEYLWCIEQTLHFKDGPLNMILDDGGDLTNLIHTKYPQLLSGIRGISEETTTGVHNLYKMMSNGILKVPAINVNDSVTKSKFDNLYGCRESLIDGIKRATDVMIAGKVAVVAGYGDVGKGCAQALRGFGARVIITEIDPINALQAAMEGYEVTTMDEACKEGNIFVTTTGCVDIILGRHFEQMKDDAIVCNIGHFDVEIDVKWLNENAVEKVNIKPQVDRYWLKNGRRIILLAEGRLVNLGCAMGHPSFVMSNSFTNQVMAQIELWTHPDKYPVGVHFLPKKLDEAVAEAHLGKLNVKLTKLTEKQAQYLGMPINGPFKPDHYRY

Row | SMILES | IC50 (HEL [1]) [mg/L] | IC50 (HEL [2]) [mg/L] | IC50 (HEL [3]) [mg/L] | IC50 (HEL [4]) [mg/L] | IC50 (HEL [5]) [mg/L] | IC50 (HEL [6]) [mg/L] | IC50 (HeLa [7]) [mg/L] | IC50 (HeLa [10]) [mg/L] | IC50 (MDCK [11]) [mg/L] | IC50 (MT4 [12]) [mg/L] | IC50 (MT4 [13]) [mg/L] | IC50 (MT4 [14]) [mg/L] | IC50 (PRK [15]) [mg/L] | IC50 (PRK [16]) [mg/L] | IC50 [17] [mg/L] | IC50 (PRK [19]) [mg/L] | IC50 (PRK [20]) [mg/L] | IC50 (Vero [21]) [mg/L] | IC50 (Vero [23]) [mg/L] | IC50 (Vero [24]) [mg/L] | other results
1 | CC1=C[C@@H](n2cnc3c(N)ncnc32)[C@H](O)[C@@H]1O | 2.5 (≈ 10.1 µM) | 1.5 (≈ 6.07 µM) | 4 (≈ 16.2 µM) | 10 (≈ 40.4 µM) | 20 (≈ 80.9 µM) | 2 (≈ 8.09 µM) | > 200 | > 400 | > 100 | > 1.5 | > 1.5 | 2.5 (≈ 10.1 µM) | > 400 | 0.7 (≈ 2.83 µM) | > 200 | 0.7 (≈ 2.83 µM) | > 400 | > 200 | 0.7 (≈ 2.83 µM) | 0.4 (≈ 1.62 µM) | IC50 (HeLa [8]): 10 mg/L (≈ 40.4 µM); IC50 (HeLa [9]): 7 mg/L (≈ 28.3 µM); IC50 [18]: > 200 mg/L; Ki (Adenosylhomocysteinase): 0.15 µM; IC50 (Vero [22]): 4 mg/L (≈ 16.2 µM); IC50 (Vero [25]): > 200 mg/L; IC50 (Vero [26]): > 200 mg/L; IC50 (Vero [27]): 0.4 mg/L (≈ 1.62 µM); IC50 (Vero [28]): 1.7 mg/L (≈ 6.88 µM); IC50 (Vero [29]): 40 mg/L (≈ 162 µM); IC50 (Vero [30]): 4.7 mg/L (≈ 19 µM); IC50 (Vero [31]): 20 mg/L (≈ 80.9 µM); IC50 (HeLa [32]): > 200 mg/L; IC50 (MDCK [33]): > 100 mg/L; IC50 (MDCK [34]): > 100 mg/L
2 | C[C@@H](O)C1=C[C@@H](n2cnc3c(N)ncnc32)[C@H](O)[C@@H]1O | 0.06 (≈ 0.216 µM) | 0.03 (≈ 0.108 µM) | 38 (≈ 137 µM) | 6 (≈ 21.6 µM) | 21 (≈ 75.7 µM) | 65 (≈ 234 µM) | > 400 | > 400 | > 100 | > 0.03 | > 0.03 | 0.09 (≈ 0.325 µM) | > 400 | 0.1 (≈ 0.361 µM) | > 400 | 0.1 (≈ 0.361 µM) | > 400 | > 200 | 0.04 (≈ 0.144 µM) | 0.4 (≈ 1.44 µM) | IC50 (ESM [35]): > 400 mg/L; IC50 (ESM [36]): > 400 mg/L; IC50 (ESM [37]): > 400 mg/L; IC50 (ESM [38]): 70 mg/L (≈ 252 µM); IC50 (ESM [39]): 70 mg/L (≈ 252 µM); IC50 (ESM [40]): 0.04 mg/L (≈ 0.144 µM); IC50 (ESM [41]): 0.07 mg/L (≈ 0.252 µM); IC50 (ESM [42]): > 400 mg/L; IC50 (HEL [43]): > 200 mg/L; IC50 [44]: > 200 mg/L; IC50 (Vero [25]): > 200 mg/L; IC50 (Vero [26]): 4 mg/L (≈ 14.4 µM); IC50 (Vero [27]): 0.5 mg/L (≈ 1.8 µM); IC50 (Vero [28]): 0.1 mg/L (≈ 0.361 µM); IC50 (Vero [29]): > 400 mg/L; IC50 (Vero [30]): 56 mg/L (≈ 202 µM); IC50 (Vero [31]): 0.1 mg/L (≈ 0.361 µM); IC50 (HeLa [32]): > 400 mg/L; IC50 (MDCK [33]): > 100 mg/L; IC50 (MDCK [34]): > 100 mg/L
